Results reported in ChEMBL document CHEMBL1671732, “No evidence for induction of ABC transporters in peripheral blood mononuclear cells in humans after 14 days of efavirenz treatment” (Antimicrob Agents Chemother, 2010).

Tests used:
[1] = Drug concentration in PBMCs of healthy human at 400 mg, po measured after 24 hrs on day 1 post dose by liquid chromatography-tandem mass spectrometry; assay type: ADME, organism-based, PBMC; details: read-out: Drug uptake
[2] = Drug concentration in PBMCs of healthy human at 400 mg, po measured after 5 hrs on day 1 post dose by liquid chromatography-tandem mass spectrometry; assay type: ADME, organism-based, PBMC; details: read-out: Drug uptake
Homo sapiens [3] = experiment: Reduction in ABCB1 mRNA expression in healthy human at 400 mg, po qd for 14 days by RT-PCR; assay type: ADME, organism-based; details: in vivo, 336 h
Homo sapiens [4] = experiment: Reduction in ABCC2 mRNA expression in healthy human at 400 mg, po qd for 14 days by RT-PCR; assay type: ADME, organism-based; details: in vivo, 336 h
[5] = Ratio of drug concentration in PBMCs to plasma of healthy human administered at 400 mg, po qd for 14 days measured after 24 hrs post last dose; assay type: ADME, organism-based, PBMC
[6] = Apparent oral clearance in healthy human plasma at 400 mg, po measured on day 1 post dose by liquid chromatography-tandem mass spectrometry; assay type: ADME, organism-based
Plasma [7] = experiment: Fraction unbound in healthy human plasma at 400 mg, po qd for 14 days by liquid chromatography-tandem mass spectrometry; assay type: ADME, organism-based; details: in vivo, 336 h
[8] = Cmax in healthy human plasma at 400 mg, po qd for 14 days by liquid chromatography-tandem mass spectrometry; assay type: ADME, organism-based; set-up: dose 400 mg, route oral
[9] = Apparent oral clearance in healthy human plasma at 400 mg, po qd for 14 days by liquid chromatography-tandem mass spectrometry; assay type: ADME, organism-based
[10] = Drug concentration in PBMCs of healthy human at 400 mg, po ad for 14 days measured after 24 hrs post last dose by liquid chromatography-tandem mass spectrometry; assay type: ADME, organism-based, PBMC; details: read-out: Drug uptake
Plasma [11] = experiment: Fraction unbound in healthy human plasma at 400 mg, po measured on day 1 post dose by liquid chromatography-tandem mass spectrometry; assay type: ADME, organism-based; details: in vivo
[12] = Ratio of drug concentration in PBMCs to plasma of healthy human administered at 400 mg, po measured after 24 hrs on day 1 post dose; assay type: ADME, organism-based, PBMC
[13] = Ratio of drug concentration in PBMCs to plasma of healthy human administered at 400 mg, po qd for 14 days measured after 5 hrs post last dose; assay type: ADME, organism-based, PBMC
Homo sapiens [14] = experiment: Effect on P-gp activity in PBMCs isolated from healthy human receiving compound dose at 400 mg, po qd for 14 days by rhodamine -123 efflux assay; assay type: ADME, organism-based; details: in vivo, 336 h
Homo sapiens [15] = experiment: Reduction in ABCC1 mRNA expression in healthy human at 400 mg, po qd for 14 days by RT-PCR; assay type: ADME, organism-based; details: in vivo, 336 h
Homo sapiens [16] = experiment: Volume of distribution in healthy human plasma at 400 mg, po qd for 14 days by liquid chromatography-tandem mass spectrometry; assay type: ADME, organism-based; details: in vivo, 336 h
[17] = Tmax in healthy human plasma at 400 mg, po measured on day 1 post dose by liquid chromatography-tandem mass spectrometry; assay type: ADME, organism-based
[18] = Half life in healthy human plasma at 400 mg, po qd for 14 days by liquid chromatography-tandem mass spectrometry; assay type: ADME, organism-based
[19] = Half life in healthy human plasma at 400 mg, po measured on day 1 post dose by liquid chromatography-tandem mass spectrometry; assay type: ADME, organism-based
[20] = Cmax in healthy human plasma at 400 mg, po measured on day 1 post dose by liquid chromatography-tandem mass spectrometry; assay type: ADME, organism-based; set-up: dose 400 mg, route oral
Homo sapiens [21] = experiment: Volume of distribution in healthy human plasma at 400 mg, po measured on day 1 post dose by liquid chromatography-tandem mass spectrometry; assay type: ADME, organism-based; details: in vivo
[22] = Drug concentration in PBMCs of healthy human at 400 mg, po ad for 14 days measured after 5 hrs post last dose by liquid chromatography-tandem mass spectrometry; assay type: ADME, organism-based, PBMC; details: read-out: Drug uptake
[23] = Tmax in healthy human plasma at 400 mg, po qd for 14 days by liquid chromatography-tandem mass spectrometry; assay type: ADME, organism-based
[24] = Ratio of drug concentration in PBMCs to plasma of healthy human administered at 400 mg, po measured after 5 hrs on day 1 post dose; assay type: ADME, organism-based, PBMC

O=C1Nc2ccc(Cl)cc2[C@@](C#CC2CC2)(C(F)(F)F)O1 [EFAVIRENZ]
concentration at 24 h [1]: 974 ng/mL
concentration at 5 h [2]: 1470 ng/mL
Activity (Homo sapiens [3]): Non-toxic
Activity (Homo sapiens [4]): Non-toxic
Kp at 24 h [5]: 1.36
CL/F [6]: 70.7 mL/min
Fu (Plasma [7]): 0.52%
Cmax [8]: 3760 ng/mL
CL/F [9]: 148 mL/min
concentration at 24 h [10]: 2030 ng/mL
Fu (Plasma [11]): 0.47%
Kp at 24 h [12]: 1.53
Kp at 5 h [13]: 1.76
Activity (Homo sapiens [14]): Non-toxic
Activity (Homo sapiens [15]): Non-toxic
Vd (Homo sapiens [16]): 401.6 L
Tmax [17]: 2.3 h
half-life [18]: 33 h
half-life [19]: 78.7 h
Cmax [20]: 2740 ng/mL
Vd (Homo sapiens [21]): 462.8 L
concentration at 5 h [22]: 3600 ng/mL
Tmax [23]: 2.2 h
Kp at 5 h [24]: 1.63
